# PubChem BioAssay (NCI)
#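 Briefly, cells in 96-well plates were exposed to five compound concentrations for 48 h, and endpoints were estimated by linear interpolation. TGI: total growth inhibition.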
# Assays:
# Experiment in all cases: NCI tumour cell line growth inhibition, 48 h
# SF-295 CNS = test system: SF-295 CNS
# HCC-2998 colon = test system: HCC-2998 colon
# IGROV1 ovarian = test system: IGROV1 ovarian
# UACC-257 melanoma = test system: UACC-257 melanoma
# DMS 273 small cell lung = test system: DMS 273 small cell lung
# KM20L2 colon = test system: KM20L2 colon
# SK-OV-3 ovarian = test system: SK-OV-3 ovarian
# SNB-19 CNS = test system: SNB-19 CNS
# HT29 colon = test system: HT29 colon
# MOLT-4 leukemia = test system: MOLT-4 leukemia
# NCI/ADR-RES ovarian = test system: NCI/ADR-RES ovarian
# A498 renal = test system: A498 renal
# SK-MEL-28 melanoma = test system: SK-MEL-28 melanoma
# SK-MEL-2 melanoma = test system: SK-MEL-2 melanoma
# RXF 393 renal = test system: RXF 393 renal
# OVCAR-5 ovarian = test system: OVCAR-5 ovarian
# SF-539 CNS = test system: SF-539 CNS
# U251 CNS = test system: U251 CNS
# MCF7 breast = test system: MCF7 breast
# RPMI-8226 leukemia = test system: RPMI-8226 leukemia
# OVCAR-3 ovarian = test system: OVCAR-3 ovarian
# OVCAR-8 ovarian = test system: OVCAR-8 ovarian
# P388 leukemia = test system: P388 leukemia
# UACC-62 melanoma = test system: UACC-62 melanoma
# HOP-18 NSCLC = test system: HOP-18 NSCLC
# SNB-78 CNS = test system: SNB-78 CNS
# UO-31 renal = test system: UO-31 renal
# DMS 114 small cell lung = test system: DMS 114 small cell lung
# HCT-15 colon = test system: HCT-15 colon
# A549 NSCLC = test system: A549 NSCLC
# COLO 205 colon = test system: COLO 205 colon
# SF-268 CNS = test system: SF-268 CNS
# EKVX NSCLC = test system: EKVX NSCLC
# MALME-3M melanoma = test system: MALME-3M melanoma
# SW-620 colon = test system: SW-620 colon
# LOX IMVI melanoma = test system: LOX IMVI melanoma
# SN12K1 renal = test system: SN12K1 renal
# HOP-92 NSCLC = test system: HOP-92 NSCLC
# K-562 leukemia = test system: K-562 leukemia
# SK-MEL-5 melanoma = test system: SK-MEL-5 melanoma
# NCI-H23 lung = test system: NCI-H23 lung
# SN12C renal = test system: SN12C renal
# XF 498 CNS = test system: XF 498 CNS
# HL-60(TB) leukemia = test system: HL-60(TB) leukemia
# CCRF-CEM leukemia = test system: CCRF-CEM leukemia
# NCI-H522 lung = test system: NCI-H522 lung
# P388/ADR leukemia = test system: P388/ADR leukemia
# OVCAR-4 ovarian = test system: OVCAR-4 ovarian
# SNB-75 CNS = test system: SNB-75 CNS
# DLD-1 colon = test system: DLD-1 colon
# KM12 colon = test system: KM12 colon
# HCT-116 colon = test system: HCT-116 colon
# NCI-H226 lung = test system: NCI-H226 lung
# HOP-62 NSCLC = test system: HOP-62 NSCLC
# NCI-H460 lung = test system: NCI-H460 lung
# M19-MEL melanoma = test system: M19-MEL melanoma
# TK-10 renal = test system: TK-10 renal
# 786-0 renal = test system: 786-0 renal
# M14 melanoma = test system: M14 melanoma
# RXF-631 renal = test system: RXF-631 renal
# SR leukemia = test system: SR leukemia
# LXFL 529 NSCLC = test system: LXFL 529 NSCLC
# CAKI-1 renal = test system: CAKI-1 renal
# ACHN renal = test system: ACHN renal
smiles,measurement,setting,value
Cc1ccc(S(=O)(=O)Oc2cc(-c3ccccc3)nc3ccccc23)cc1,TGI,SF-295 CNS,13.1 µM
same,TGI,HCC-2998 colon,4.49 µM
same,TGI,IGROV1 ovarian,22.2 µM
same,TGI,UACC-257 melanoma,52.2 µM
same,TGI,DMS 273 small cell lung,> 28 µM
same,TGI,KM20L2 colon,3.52 µM
same,TGI,SK-OV-3 ovarian,5.23 µM
same,TGI,SNB-19 CNS,12.3 µM
same,TGI,HT29 colon,7.54 µM
same,TGI,MOLT-4 leukemia,> 100 µM
same,TGI,NCI/ADR-RES ovarian,11.6 µM
same,TGI,A498 renal,9.62 µM
same,TGI,SK-MEL-28 melanoma,68.7 µM
same,TGI,SK-MEL-2 melanoma,17 µM
same,TGI,RXF 393 renal,11.9 µM
same,TGI,OVCAR-5 ovarian,62 µM
same,TGI,SF-539 CNS,4.87 µM
same,TGI,U251 CNS,9.85 µM
same,TGI,MCF7 breast,> 48.4 µM
same,TGI,RPMI-8226 leukemia,7.71 µM
same,TGI,OVCAR-3 ovarian,5.73 µM
same,TGI,OVCAR-8 ovarian,> 77.6 µM
same,TGI,P388 leukemia,3.12 µM
same,TGI,UACC-62 melanoma,20.7 µM
same,TGI,HOP-18 NSCLC,45.8 µM
same,TGI,SNB-78 CNS,50.6 µM
same,TGI,UO-31 renal,35.6 µM
same,TGI,DMS 114 small cell lung,1.24 µM
same,TGI,HCT-15 colon,> 40.3 µM
same,TGI,A549 NSCLC,> 78.4 µM
same,TGI,COLO 205 colon,1.18 µM
same,TGI,SF-268 CNS,> 100 µM
same,TGI,EKVX NSCLC,> 100 µM
same,TGI,MALME-3M melanoma,17.9 µM
same,TGI,SW-620 colon,> 47.3 µM
same,TGI,LOX IMVI melanoma,> 78.5 µM
same,TGI,SN12K1 renal,4.25 µM
same,TGI,HOP-92 NSCLC,22.9 µM
same,TGI,K-562 leukemia,34.8 µM
same,TGI,SK-MEL-5 melanoma,21.3 µM
same,TGI,NCI-H23 lung,12.2 µM
same,TGI,SN12C renal,> 41.5 µM
same,TGI,XF 498 CNS,24.3 µM
same,TGI,HL-60(TB) leukemia,6.88 µM
same,TGI,CCRF-CEM leukemia,> 100 µM
same,TGI,NCI-H522 lung,3.7 µM
same,TGI,P388/ADR leukemia,12.6 µM
same,TGI,OVCAR-4 ovarian,16.2 µM
same,TGI,SNB-75 CNS,6.93 µM
same,TGI,DLD-1 colon,> 46.8 µM
same,TGI,KM12 colon,> 43.5 µM
same,TGI,HCT-116 colon,15.9 µM
same,TGI,NCI-H226 lung,26.5 µM
same,TGI,HOP-62 NSCLC,18.8 µM
same,TGI,NCI-H460 lung,13.7 µM
same,TGI,M19-MEL melanoma,40.6 µM
CC(C)(C)[SiH]12(OC(C(F)(F)F)(C(F)(F)F)c3ccccc31)OC(C(F)(F)F)(C(F)(F)F)c1ccccc12,TGI,TK-10 renal,26.3 µM
same,TGI,786-0 renal,11.1 µM
same,TGI,SF-295 CNS,8.41 µM
same,TGI,HCC-2998 colon,12.9 µM
same,TGI,UACC-257 melanoma,27.7 µM
same,TGI,DMS 273 small cell lung,24.3 µM
same,TGI,M14 melanoma,12.7 µM
same,TGI,KM20L2 colon,7.83 µM
same,TGI,RXF-631 renal,10.7 µM
same,TGI,SNB-19 CNS,13.1 µM
same,TGI,HT29 colon,13.2 µM
same,TGI,MOLT-4 leukemia,5.41 µM
same,TGI,SK-MEL-28 melanoma,28.4 µM
same,TGI,SK-MEL-2 melanoma,31.1 µM
same,TGI,OVCAR-5 ovarian,6.25 µM
same,TGI,SF-539 CNS,6.54 µM
same,TGI,U251 CNS,6.19 µM
same,TGI,RPMI-8226 leukemia,> 100 µM
same,TGI,SR leukemia,6.38 µM
same,TGI,OVCAR-3 ovarian,16.6 µM
same,TGI,OVCAR-8 ovarian,28.9 µM
same,TGI,LXFL 529 NSCLC,16.2 µM
same,TGI,CAKI-1 renal,25.3 µM
same,TGI,HOP-18 NSCLC,9.83 µM
same,TGI,SNB-78 CNS,25.3 µM
same,TGI,UO-31 renal,19.2 µM
same,TGI,DMS 114 small cell lung,22.3 µM
same,TGI,HCT-15 colon,4.77 µM
same,TGI,A549 NSCLC,19.9 µM
same,TGI,COLO 205 colon,21 µM
same,TGI,EKVX NSCLC,14.1 µM
same,TGI,MALME-3M melanoma,31 µM
same,TGI,SW-620 colon,18.1 µM
same,TGI,K-562 leukemia,18.2 µM
same,TGI,SK-MEL-5 melanoma,22.1 µM
same,TGI,NCI-H23 lung,9.64 µM
same,TGI,SN12C renal,19.4 µM
same,TGI,XF 498 CNS,24.3 µM
same,TGI,NCI-H522 lung,17.7 µM
same,TGI,OVCAR-4 ovarian,19.7 µM
same,TGI,SNB-75 CNS,7.18 µM
same,TGI,ACHN renal,21.7 µM
same,TGI,DLD-1 colon,13.3 µM
same,TGI,KM12 colon,15.3 µM
same,TGI,HCT-116 colon,13 µM
same,TGI,NCI-H226 lung,5.05 µM
same,TGI,NCI-H460 lung,6.68 µM
same,TGI,M19-MEL melanoma,26.4 µM
